Data from ChEMBL document CHEMBL4229379, “Synthesis and structure-activity relationship of novel bisindole amidines active against MDR Gram-positive and Gram-negative bacteria” (Eur J Med Chem, 2018).
Values after ≈ are worked out from the molar mass of the structure shown.

Columns and labels:
Type in all cases: functional
[1] = tested on: Acinetobacter calcoaceticus; assay: Antibacterial activity against Acinetobacter calcoaceticus ATCC 19606 after 18 hrs by CLSI broth microdilution method; details: ATCC 19606, 18 h
[2] = tested on: Stenotrophomonas maltophilia; assay: Antibacterial activity against Stenotrophomonas maltophilia ATCC 13636 after 18 hrs by CLSI broth microdilution method; details: ATCC 13636, 18 h
Staphylococcus aureus [3] = assay: Antibacterial activity against methicillin-resistant Staphylococcus aureus ATCC 33591 after 18 hrs by CLSI broth microdilution method; details: ATCC 33591, 18 h
Enterococcus faecalis [4] = assay: Antibacterial activity against vancomycin-resistant Enterococcus faecalis 09-9 after 18 hrs by CLSI broth microdilution method; details: 09-9, 18 h
Enterococcus faecium [5] = assay: Antibacterial activity against vancomycin-resistant Enterococcus faecium ATCC 700221 after 18 hrs by CLSI broth microdilution method; details: ATCC 700221, 18 h
Escherichia coli [6] = assay: Antibacterial activity against extended-spectrum beta-lactamase deficient Escherichia coli 12-14 after 18 hrs by CLSI broth microdilution method; details: 12-14, 18 h
Staphylococcus aureus [7] = assay: Antibacterial activity against methicillin-resistant Staphylococcus aureus ATCC 33591 infected in ICR mouse assessed as mouse survival at 2.5 mg/kg, iv administered at 1 and 5 hrs post infection and measured on day 7 day post last dose (reference value: 0%); details: ATCC 33591, iv
Klebsiella pneumoniae [8] = assay: Antibacterial activity against carbapenem-resistant Klebsiella pneumoniae 12-11 after 18 hrs by CLSI broth microdilution method; details: 12-11, 18 h
Staphylococcus aureus [9] = assay: Antibacterial activity against methicillin-resistant Staphylococcus aureus ATCC 33591 infected in ICR mouse assessed as mouse survival at 4 mg/kg, iv administered at 1 and 5 hrs post infection and measured on day 7 day post last dose (reference value: 0%); details: ATCC 33591, iv
Escherichia coli [10] = assay: Antibacterial activity against extended-spectrum beta-lactamase harboring Escherichia coli 12-15 after 18 hrs by CLSI broth microdilution method; details: 12-15, 18 h
Staphylococcus aureus [11] = assay: Antibacterial activity against methicillin-resistant Staphylococcus aureus ATCC 33591 infected in ICR mouse assessed as mouse survival at 3 mg/kg, iv administered at 1 and 5 hrs post infection and measured on day 7 day post last dose (reference value: 0%); details: ATCC 33591, iv
Enterobacter cloacae [12] = assay: Antibacterial activity against new delhi metallo-beta-lactamase-1 harboring Enterobacter cloacae 13-1 after 18 hrs by CLSI broth microdilution method; details: 13-1, 18 h
[13] = tested on: Staphylococcus epidermidis; assay: Antibacterial activity against methicillin-sensitive Staphylococcus epidermidis 12-6 after 18 hrs by CLSI broth microdilution method; details: 12-6, 18 h
Providencia rettgeri = assay: Antibacterial activity against Providencia rettgeri ATCC 31052 after 18 hrs by CLSI broth microdilution method; details: ATCC 31052, 18 h
Enterococcus faecium [14] = assay: Antibacterial activity against vancomycin-sensitive Enterococcus faecium 12-3 after 18 hrs by CLSI broth microdilution method; details: 12-3, 18 h
[15] = tested on: Staphylococcus epidermidis; assay: Antibacterial activity against methicillin-sensitive Staphylococcus epidermidis ATCC 12228 after 18 hrs by CLSI broth microdilution method; details: ATCC 12228, 18 h
Klebsiella pneumoniae [16] = assay: Antibacterial activity against extended-spectrum beta-lactamase harboring Klebsiella pneumoniae ATCC 700603 after 18 hrs by CLSI broth microdilution method; details: Klebsiella pneumoniae, 700603, 18 h
Staphylococcus aureus [17] = assay: Antibacterial activity against methicillin-resistant Staphylococcus aureus ATCC 33591 infected in ICR mouse assessed as mouse survival at 2 mg/kg, iv administered at 1 and 5 hrs post infection and measured on day 7 day post last dose (reference value: 0%); details: ATCC 33591, iv
Pseudomonas aeruginosa [18] = assay: Antibacterial activity against Pseudomonas aeruginosa PAO1 after 18 hrs by CLSI broth microdilution method; details: PAO1, 18 h
Klebsiella pneumoniae [19] = assay: Antibacterial activity against new delhi metallo-beta-lactamase-1 harboring Klebsiella pneumoniae ATCC BAA-2146 after 18 hrs by CLSI broth microdilution method; details: ATCC BAA-2146, 18 h
Enterobacter cloacae [20] = assay: Antibacterial activity against Enterobacter cloacae ATCC 43560 after 18 hrs by CLSI broth microdilution method; details: ATCC 43560, 18 h
[21] = tested on: Acinetobacter calcoaceticus; assay: Antibacterial activity against new delhi metallo-beta-lactamase-1 harboring Acinetobacter calcoaceticus 13-1 after 18 hrs by CLSI broth microdilution method; details: 13-1, 18 h
Klebsiella aerogenes = assay: Antibacterial activity against Enterobacter aerogenes ATCC 13048 after 18 hrs by CLSI broth microdilution method; details: ATCC 13048, 18 h
Escherichia coli [22] = assay: Antibacterial activity against extended-spectrum beta-lactamase deficient Escherichia coli 1515 after 18 hrs by CLSI broth microdilution method; details: Escherichia coli, 1515, 18 h
Klebsiella pneumoniae [23] = assay: Antibacterial activity against new delhi metallo-beta-lactamase-1 harboring Klebsiella pneumoniae 13-1 after 18 hrs by CLSI broth microdilution method; details: 13-1, 18 h
Staphylococcus aureus [24] = assay: Antibacterial activity against methicillin-resistant Staphylococcus aureus ATCC 33591 infected in ICR mouse assessed as mouse survival administered intravenously at 1 and 5 hrs post infection and measured on day 7 day post last dose (reference value: 0%); details: ATCC 33591, iv
Klebsiella pneumoniae [25] = assay: Antibacterial activity against extended-spectrum beta-lactamase deficient Klebsiella pneumoniae 7 after 18 hrs by CLSI broth microdilution method; details: Klebsiella pneumoniae, 7, 18 h
Klebsiella pneumoniae [26] = assay: Antibacterial activity against carbapenem-resistant Klebsiella pneumoniae 12-12 after 18 hrs by CLSI broth microdilution method; details: 12-12, 18 h
Escherichia coli [27] = assay: Antibacterial activity against extended-spectrum beta-lactamase deficient Escherichia coli ATCC 25922 after 18 hrs by CLSI broth microdilution method; details: ATCC 25922, 18 h
Escherichia coli [28] = assay: Antibacterial activity against extended-spectrum beta-lactamase harboring Escherichia coli CDC1001728 after 18 hrs by CLSI broth microdilution method; details: CDC1001728, 18 h
[29] = tested on: Acinetobacter calcoaceticus; assay: Antibacterial activity against carbapenem-resistant Acinetobacter calcoaceticus 12-6 after 18 hrs by CLSI broth microdilution method; details: 12-6, 18 h
Enterococcus faecalis [30] = assay: Antibacterial activity against vancomycin-resistant Enterococcus faecalis ATCC 51299 after 18 hrs by CLSI broth microdilution method; details: ATCC 51299, 18 h
Enterococcus faecalis [31] = assay: Antibacterial activity against vancomycin-sensitive Enterococcus faecalis 12-5 after 18 hrs by CLSI broth microdilution method; details: 12-5, 18 h
Klebsiella pneumoniae [32] = assay: Antibacterial activity against extended-spectrum beta-lactamase harboring Klebsiella pneumoniae 12-8 after 18 hrs by CLSI broth microdilution method; details: 12-8, 18 h
Enterococcus faecalis [33] = assay: Antibacterial activity against vancomycin-sensitive Enterococcus faecalis ATCC 29212 after 18 hrs by CLSI broth microdilution method; details: ATCC 29212, 18 h
[34] = tested on: Staphylococcus epidermidis; assay: Antibacterial activity against methicillin-resistant Staphylococcus epidermidis 12-8 after 18 hrs by CLSI broth microdilution method; details: 12-8, 18 h
Pseudomonas aeruginosa [35] = assay: Antibacterial activity against Pseudomonas aeruginosa ATCC 27853 after 18 hrs by CLSI broth microdilution method; details: ATCC 27853, 18 h
Staphylococcus aureus [36] = assay: Antibacterial activity against methicillin-sensitive Staphylococcus aureus 15 after 18 hrs by CLSI broth microdilution method; details: Staphylococcus aureus, 15, 18 h
Proteus mirabilis = assay: Antibacterial activity against Proteus mirabilis 12-6 after 18 hrs by CLSI broth microdilution method; details: 12-6, 18 h

SMILES: CN(C)C(=N)c1ccc2cc(-c3ccc(-c4cc5ccc(C(=N)N(C)C)cc5[nH]4)cc3)[nH]c2c1
- MIC [1]: 8 µg/mL (≈ 17.8 µM)
- MIC [2]: 8 µg/mL (≈ 17.8 µM)
- MIC (Staphylococcus aureus [3]): 0.25 µg/mL (≈ 0.557 µM)
- MIC (Enterococcus faecalis [4]): 1 µg/mL (≈ 2.23 µM)
- MIC (Enterococcus faecium [5]): 1 µg/mL (≈ 2.23 µM)
- MIC (Escherichia coli [6]): 1 µg/mL (≈ 2.23 µM)
- survival at 2.5 mg/kg (Staphylococcus aureus [7]): 50%
- MIC (Klebsiella pneumoniae [8]): 8 µg/mL (≈ 17.8 µM)
- survival at 4 mg/kg (Staphylococcus aureus [9]): 90%
- MIC (Escherichia coli [10]): 2 µg/mL (≈ 4.46 µM)
- survival at 3 mg/kg (Staphylococcus aureus [11]): 60%
- MIC (Enterobacter cloacae [12]): 4 µg/mL (≈ 8.92 µM)
- MIC [13]: 0.125 µg/mL (≈ 0.279 µM)
- MIC (Providencia rettgeri): 2 µg/mL (≈ 4.46 µM)
- MIC (Enterococcus faecium [14]): 1 µg/mL (≈ 2.23 µM)
- MIC [15]: 0.125 µg/mL (≈ 0.279 µM)
- MIC (Klebsiella pneumoniae [16]): 4 µg/mL (≈ 8.92 µM)
- survival at 2 mg/kg (Staphylococcus aureus [17]): 20%
- MIC (Pseudomonas aeruginosa [18]): 64 µg/mL (≈ 143 µM)
- MIC (Klebsiella pneumoniae [19]): 2 µg/mL (≈ 4.46 µM)
- MIC (Enterobacter cloacae [20]): 1 µg/mL (≈ 2.23 µM)
- MIC [21]: 4 µg/mL (≈ 8.92 µM)
- MIC (Klebsiella aerogenes): 2 µg/mL (≈ 4.46 µM)
- MIC (Escherichia coli [22]): 1 µg/mL (≈ 2.23 µM)
- MIC (Klebsiella pneumoniae [23]): 4 µg/mL (≈ 8.92 µM)
- ED50 (Staphylococcus aureus [24]): 2.62 mg/kg
- ED95 (Staphylococcus aureus [24]): 4.62 mg/kg
- MIC (Klebsiella pneumoniae [25]): 2 µg/mL (≈ 4.46 µM)
- MIC (Klebsiella pneumoniae [26]): 16 µg/mL (≈ 35.7 µM)
- MIC (Escherichia coli [27]): 1 µg/mL (≈ 2.23 µM)
- MIC (Escherichia coli [28]): 2 µg/mL (≈ 4.46 µM)
- MIC [29]: 8 µg/mL (≈ 17.8 µM)
- MIC (Enterococcus faecalis [30]): 1 µg/mL (≈ 2.23 µM)
- MIC (Enterococcus faecalis [31]): 2 µg/mL (≈ 4.46 µM)
- MIC (Klebsiella pneumoniae [32]): 4 µg/mL (≈ 8.92 µM)
- MIC (Enterococcus faecalis [33]): 1 µg/mL (≈ 2.23 µM)
- MIC [34]: 0.25 µg/mL (≈ 0.557 µM)
- MIC (Pseudomonas aeruginosa [35]): 4 µg/mL (≈ 8.92 µM)
- MIC (Staphylococcus aureus [36]): 0.25 µg/mL (≈ 0.557 µM)
- MIC (Proteus mirabilis): 8 µg/mL (≈ 17.8 µM)
